Test results published in patent publication US20250043290A1, “RNA SEQUENCES THAT INDUCE FLUORESCENCE OF SMALL MOLECULE FLUOROPHORES, MOLECULAR COMPLEXES, SENSORS, AND METHODS OF USE THEREOF” (CORNELL UNIVERSITY, priority 2021, published 2025).
“Also recorded” adds a separate entry of the source.

How the values were obtained:
[1] = Photophysical properties of DFAME, DFHO and RNA complexes (Beetroot study); assay type: physicochemical
From the text: dsDNA encoding the top-performing RNA sequences from the brightest bacterial colonies was PCR amplified from the purified plasmids. PCR products were subjected to gel electrophoresis in 2% TBE gel, and the PCR product band corresponding to the correct size was excised from gel and further purified with PCR purification columns (Qiagen) and in vitro transcribed using an AmpliScribe T7-Flash Transcription Kit (Epicenter). The resulting RNA was then purified using Zymo RNA concentrator columns and quantified by absorbance using a Thermo Scientific NanoDrop 2000 spectrophotometer. For absorption, excitation and emission spectra measurements, “excess RNA” conditions and limiting amount of fluorophore was used to ensure that no free fluorophore contributes to the absorbance or fluorescence signal. The RNA concentration used for fluorescence and absorbance measurements was 20 μM and 50 μM, respectively, while the dye concentration was 2 μM and 5 μM, respectively. All in vitro RNA properties were measured in 40 mM HEPES pH 7.4, 100 mM KCl, 5 mM MgCl2 buffer, unless specified.
Extinction coefficient was calculated based on Beer's law. Briefly, absorbance spectrum of 5 μM DFAME, Beetroot-DFAME, or Corn-DFAME was measured using a Thermo Scientific NanoDrop 2000 spectrophotometer with cuvette capability. Extinction coefficient was calculated by dividing peak absorbance value by the concentration of fluorophore alone, or RNA-fluorophore complex.
Quantum yield was determined by comparing the integral of the emission spectra for DFAME or RNA-DFAME complex with the corresponding integral obtained from Rhodamine B solution. These integral values were plotted against the absorbance values corresponding to the excitation wavelength. The slopes from the above plots were calculated for determining quantum yield. Quantum yield was calculated by multiplying the quantum yield of Rhodamine B by the slope of DFAME or RNA-DFAME complex, then divided by the slope of Rhodamine B.

HEK293T cells [2] = assay: Cytotoxicity of DFAME, MTT assay after illumination; assay type: cell-based; details: 10 μM, illuminated for 10 minutes
Procedure: FIG. 31A is a graph showing the results of an experiment evaluating fluorescence of DFAME when mixed with cells. An important criteria for a fluorogenic dye is that it must have very low fluorescence when mixed with cells. To test this, 10 μM DFAME was incubated with cultured HEK293T cells and the fluorescence intensity of the DFAME-incubated cells was measured. […] Although the background fluorescence in cells induced by DFAME (n=48 cells) was higher than DFHO (n=47 cells) or DFHBI-1T (n=44 cells), it was reasoned that DFAME could be used if enough fluorogenic aptamer is used in cells. Data were collected from three independent cell cultures. Values are means±s.d. FIG. 31B is a graph showing the cytotoxicity of DFAME. To apply a fluorogenic dye in cells, it is critical that this dye has minimal cytotoxicity. To test the cytotoxicity of DFAME, HEK293T cells were first incubated with 10 μM DFAME, then illuminated for 10 minutes using a Nikon Intensilight C-HGFIE 130 W mercury lamp with the TRITC filter set. Control cells were illuminated under identical conditions either with 0.2% DMSO (illuminated with the TRITC filter set) or 10 μM malachite green (illuminated with the Cy5 filter set). […] MTT absorbance readings were performed at 550 nm with 650 nm absorbance used for background subtraction. […]

[3] = Fluorescence activation of DFAME by aptamers in vitro; assay type: biochemical; details: in vitro
Procedure: (§1) To test whether Beetroot can activate DFHO, the fluorescence emission spectrum of the Beetroot-DFHO complex was measured. In brief, 20 μM Beetroot and 2 μM DFHO were mixed, and the fluorescence emission of the Beetroot-DFHO complex was measured. […] To test whether Beetroot can activate DFHBI-1T, the fluorescence emission spectrum of the Beetroot-DFHBI-1T complex was measured using the same protocol described in FIG. 32A. […] To test whether Beetroot can activate BI, the fluorescence emission spectrum of the Beetroot-BI complex was measured using the same protocol described in FIG. 32A. […] To test whether Corn can activate DFAME, the fluorescence emission spectrum of the Corn-DFAME complex was measured using the same protocol described in FIG. 32A.
The eluted RNAs were then ethanol precipitated, reverse transcribed, PCR amplified and in vitro transcribed to yield the pool for the next SELEX round. The presence of fluorescent RNA species in each pool was assessed by mixing 20 μM RNA and 10 μM DFAME and measuring fluorescence emission of this solution on a fluorometer in comparison with the fluorophore alone. At this point, RNAs were cloned into bacterial expression plasmids for FACS-based screening.
dsDNA encoding the top-performing RNA sequences from the brightest bacterial colonies was PCR amplified from the purified plasmids. […] The resulting RNA was then purified using Zymo RNA concentrator columns and quantified by absorbance using a Thermo Scientific NanoDrop 2000 spectrophotometer. For absorption, excitation and emission spectra measurements, “excess RNA” conditions and limiting amount of fluorophore was used to ensure that no free fluorophore contributes to the absorbance or fluorescence signal. The RNA concentration used for fluorescence and absorbance measurements was 20 μM and 50 μM, respectively, while the dye concentration was 2 μM and 5 μM, respectively. All in vitro RNA properties were measured in 40 mM HEPES pH 7.4, 100 mM KCl, 5 mM MgCl2 buffer, unless specified.

[4] = Fluorescence emission of Beetroot with DFHO; assay type: biochemical; details: 20 μM Beetroot, 2 μM DFHO
Procedure: as §1

Corn = assay: Beetroot-Corn heterodimer formation, nondenaturing electrophoretic analysis; assay type: binding; details: equimolar mixture, heat-denatured and cooled
Procedure: FIG. 27B is an image showing that Beetroot is a dimer in vitro. To test this, nondenaturing electrophoretic analysis was performed on a wild-type Beetroot and a mutant Beetroot with mutations in the G-quadruplex that are expected to disrupt any putative dimer formation. […] The RNA band marked with an asterisk (*) reflects an RNA side product from in vitro transcription. […] To test whether Beetroot and Corn can form heterodimers in vitro, nondenaturing electrophoretic analysis was performed on Beetroot, Corn, and a Beetroot-Corn equimolar mixture to measure heterodimer formation. If Beetroot (107 nt) and Corn (250 nt) are orthogonal dimers, two distinct molecular species would be expected: dimeric Beetroot and dimeric Corn. On the other hand, if Beetroot-Corn heterodimers are formed, a third molecular species, reflecting a Beetroot-Corn heterodimer, with a molecular weight in between dimeric Beetroot and dimeric Corn, would be expected. […] In-gel staining with DFAME and DFHO also confirmed the identity of the putative dimeric species. The RNA band marked with an asterisk (*) reflects an RNA side product from in vitro transcription. A final concentration of 350 nM RNA was used in each lane. […]

[5] = Fluorescence emission of Beetroot with BI; assay type: biochemical; details: 20 μM RNA, 2 μM dye
Procedure: as §1

HEK293T cells [6] = assay: Imaging Beetroot in HEK293T cells; assay type: cell-based; details: Tornado circular RNA, tRNA or F30-tRNA scaffold, 10 μM DFAME, 5 mM MgCl2
Procedure: FIGS. 35A-35B show imaging Beetroot in HEK293T cells. To test whether Beetroot could be imaged in HEK293T cells, Beetroot was expressed in Tornado. […] FIG. 35B are images showing HEK293T cells which were transiently transfected with Beetroot-expressing plasmids. About 36 hours after transfection, these transfected HEK293T cells were incubated with 10 μM DFAME and 5 mM MgCl2 for 1 hour prior to imaging. Detectable levels of red fluorescence were not observed in HEK293T cells. Data shown here is a representative image from three independent cell cultures. Scale bar, […].
Prior to imaging experiments, HEK293T cells were incubated with 1 μl of Hoechst 33342 (Thermo Fisher Scientific, H3570) per 2 ml of imaging media (phenol red-free Dulbeco's modified Eagle's medium (Thermo Fisher Scientific 31053-028) supplemented with 10% fetal bovine serum (Corning 35-010-CV), 100 U ml-1 of penicillin and […] of streptomycin, 1× GlutaMAX (Thermo Fisher Scientific, 35050-061) and 1 mM sodium pyruvate (Thermo Fisher Scientific, 11360-070)). For imaging experiments of RNA-fluorophore complex, HEK293T cells were incubated with imaging media supplemented with a final concentration of 10 μM fluorophore (DFHO or DFAME) and 5 mM MgCl2 for one hour prior to imaging.

Beetroot = Beetroot homodimer dissociation, serial dilution and non-denaturing gel electrophoresis; assay type: binding; details: dilution 1000 nM to 1.4 nM, 20° C., 12 hours; read-out: Homodimerization dissociation constant (Kd)
Procedure: FIGS. 33A-33C provide the dissociation constant (Kd) of Beetroot homodimer. […] These RNAs were incubated at 20° C. for 12 hours and then analyzed using non-denaturing gel electrophoresis (FIG. 33A). The fraction of Beetroot monomer (FIG. 33B) and Beetroot dimer (FIG. 33C) were quantified after SYBR Gold staining. […] The RNA band marked with an asterisk (*) reflects an RNA side product from in vitro transcription. The same side product band was also observed in FIGS. 27B-27C. Quantification shown in […] is based on two independent experiments. FIG. 33D are images showing genetic encoding of simple macromolecular RNA assemblies in cells using Corn when circular RNAs containing 3 and 5 copies of Corn were expressed in HEK293T cells. Clusters of these Corn-containing RNAs were observed as large intracellular puncta. Data shown here is a representative image from three independent cell cultures. Scale bar, 20 μm. FIG. 33E is a graph showing the quantification of the fraction of Corn and Beetroot in the cell that accumulates in puncta. As the valency of Corn increases from three to five, the fraction of Corn participating in the RNA assembly increases from 28±12% to 57±14%. Compared to 5× Corn, a fraction of 27±11% of 5× Beetroot are participating in the Beetroot RNA assembly. Values are means±s.d. FIG. 33F is a graph showing quantification of RNA assembly size in cells. […]

[7] = Fluorescence emission of Beetroot with DFHBI-1T; assay type: biochemical; details: 20 μM RNA, 2 μM dye
Procedure: as §1

| Compound | Emission maximum [1] [nm] | Excitation maximum [1] [nm] | Fluorescence in solution ([1]; 10 μM) | Extinction coefficient ([1]; DFAME alone, at 514 nm, pH 7.4 buffer) | Brightness (extinction coefficient × quantum yield) ([1]; relative to Corn-DFHO) | Fluorescence quantum yield ([1]; versus Rhodamine B) | Cytotoxicity (HEK293T cells [2]) | Fold fluorescence enhancement of DFAME [3] | Binding and activation of DFHO fluorescence [4] | Heterodimer formation with Corn (Corn) | Binding and activation of BI fluorescence [5] | Red fluorescence in cells (HEK293T cells [6]) | Kd (Beetroot) [nM] | Binding and activation of DFHBI-1T fluorescence [7] |
| --- | --- | --- | --- | --- | --- | --- | --- | --- | --- | --- | --- | --- | --- | --- |
| COC(=O)/C=C/C1=NC(=C\c2cc(F)c(O)c(F)c2)/C(=O)N1C [DFAME, methyl 3-((Z)-4-(3,5-difluoro-4-hydroxybenzylidene)-1-methyl-5-oxo-4,5-dihydro-1H-imidazol-2-yl)acrylate] | 641 | 508 | very low red fluorescence | 32,500 M^−1cm^−1 | 1.3 | 0.0029 | low cytotoxicity | – | – | – | – | – | – | – |
| Beetroot: red-fluorescent dimeric fluorogenic RNA aptamer binding DFAME, SEQ ID NO: 96 (GUUAGGCAGAGGUGGGUGGUGUGGAGGAGUAUCUGUC; RNA, backbone not given here) | – | – | – | – | – | – | – | approximately 40 fold | weakly binds and activates; also recorded: only weakly bind and activate | no mixed Corn-Beetroot heterodimers | cannot bind and activate | not observed | < 1 | cannot bind and activate |
